# Experiments:
# Assay type in all cases: in vivo
# souris [1] = experiment: Global behaviour and reactivity, mouse
# Experimental: On a résumé ci-après les résultats des essais qui ont été entrepris chez l'animal avec le CRL 40914, ce produit étant administré, sauf indications contraires, en solution dans l'eau (à pH 5) par voie intrapéritonéale sous un volume de 20 ml/kg chez la souris mâle et de 5 ml/kg chez le rat mâle.
# Des lots de 3 animaux sont observés avant, puis 15 min, 30 min, 1 h, 2 h, 3 h et 24 h après l'administration de CRL 40914. On observe ce qui suit:
# (§1) On a résumé ci-après les résultats des essais qui ont été entrepris chez l'animal avec le CRL 40915, les modalités opératoires étant celles données ci-dessus pour le CR L 40914.
# rats = experiment: Search for stereotyped movements; settings: rat
# Experimental: Des lots de 6 rats reçoivent une injection intrapéritonéale de CRL 40914 ou d'amphétamine puis sont immédiatement placés dans des boîtes de petites dimensions où leur comportement stéréotypé est coté de 0 à 3 toutes les 10 min jusqu'à extinction de l'effet.
# souris [2] = experiment: Interaction with apomorphine, mouse; settings: 16 mg/kg et 64 mg/kg i.p., une demi-heure avant apomorphine s.c. 1 ou 16 mg/kg
# Experimental: Des lots de 6 souris reçoivent le CRL 40914 une demi-heure avant l'injection sous-cutanée d'apomorphine, à la dose de 1 mg/kg ou 16 mg/kg.
# as §1
# souris [3] = experiment: Interaction with oxotremorine; settings: oxotrémorine 0,5 mg/kg i.p.
# Experimental: Le CRL 40914 est administré à des lots de 6 souris une demi-heure avant l'injection intrapéritonéale de 0,5 mg/kg d'oxotrémorine.
# as §1
# souris [4] = experiment: Four plates test, traction and electroshock
# From the text: Le test est pratiqué sur des lots de 10 souris, une demi-heure après l'administration de CRL 40914.
# as §1
# souris [5] = experiment: Motility reduced by habituation to the enclosure; settings: 64 mg/kg i.p.
# Experimental: Après 18 h de séjour dans les actimètres, les souris (6 par dose, 12 témoins) reçoivent le CRL 40914. Elles sont aussitôt replacées dans leurs enceintes respectives et, une demi-heure plus tard, on enregistre leur motilité pendant 30 min.
# as §1
# homme = experiment: Clinical use by the oral route; settings: voie orale, 2 à 3 comprimés ou gélules (10 à 20 mg chacun) par jour
smiles,measurement,setting,value
"CCN1CCOC(c2ccccc2)C1 (stereo not drawn) [CRL 40914, Chlorhydratede 2-phényl-4-éthyl-morpholine]",mydriase,souris [1]; 2 mg/kg i.p.,mydriase pendant 1 h
same,sédation,souris [1]; 2 mg/kg i.p.,sédation pendant 30 à 60 min
same,hypothermie,"souris [1]; 2 mg/kg i.p., pendant 1 à 2 h","-3,6 °C"
same,mydriase,souris [1]; 4 mg/kg i.p.,mydriase pendant 1 heure
same,sédation,souris [1]; 4 mg/kg i.p.,sédation pendant 30 à 60 min
same,hypothermie,"souris [1]; 4 mg/kg i.p., pendant 1 h","-2,2 °C"
same,excitation,souris [1]; 16 mg/kg i.p.,excitation pendant 30 min suivie d'une hyporéactivité au toucher
same,lacrymation,souris [1]; 16 mg/kg i.p.,lacrymation pendant 1 h
same,mydriase,souris [1]; 16 mg/kg i.p.,mydriase pendant 1 h
same,hypothermie,"souris [1]; 16 mg/kg i.p., pendant 2 à 3 h","-2,8 °C"
same,excitation,souris [1]; 64 mg/kg i.p.,excitation pendant 1 à 2 h avec manifestation de mouvements stéréotypés
same,mydriase,souris [1]; 64 mg/kg i.p.,mydriase pendant 1 h
same,"piloérection, salivation et lacrymation",souris [1]; 64 mg/kg i.p.,"piloérection, salivation et lacrymation pendant 1 h"
same,polypnée,souris [1]; 64 mg/kg i.p.,polypnée pendant 2 h
same,mouvements stéréotypés,rats; 32 mg/kg i.p.,ne provoque pas de stéréotypies
same,mouvements stéréotypés,rats; 64 mg/kg i.p.,mouvements stéréotypés d'intensité et de durée comparables à ceux observés après administration de 1 mg/kg d'amphétamine
same,mouvements stéréotypés,rats; 128 mg/kg i.p.,cet effet est encore plus net
same,action hypothermisante de l'apomorphine,souris [2],s'oppose à l'action hypothermisante de l'apomorphine
same,indices de verticalisation et de stéréotypies (apomorphine),souris [2],semble augmenter les indices de verticalisation et de stéréotypies
same,effet hypothermisant de l'oxotrémorine,souris [3]; 16 mg/kg et 64 mg/kg i.p.,combat l'effet hypothermisant
same,tremblements dus à l'oxotrémorine,souris [3]; 64 mg/kg i.p.,diminue l'intensité des tremblements
same,signes de stimulation cholinergique périphérique provoqués par l'oxotrémorine,souris [3],laisse inchangés les signes de stimulation cholinergique périphériques
same,effets létaux de l'électrochoc,souris [4]; 64 mg/kg i.p.,aggrave les effets létaux de l'électrochoc
same,déficit moteur (traction),souris [4]; i.p.,ne provoque pas de déficit moteur majeur
same,nombre de passages punis (test des quatre plaques),"souris [4]; i.p., faible dose / forte dose","à faible dose une diminution, et à forte dose une augmentation du nombre de passages punis"
same,activité motrice chez la souris habituée à son enceinte,souris [5],reprise très nette de l'activité motrice
same,résultats cliniques (agent antidépresseur du SNC),homme,d'excellents résultats

# Reference: patent publication EP0080940B1, “Derivatives of 2-phenyl-morpholine and medical compositions” (LABORATOIRE L. LAFON Société anonyme dite:, priority 1981, dated 1983)
